Results as given in PMC7544826 (Communications Biology, 2020).
“Also recorded” adds a separate entry of the source.

Columns and labels:
[1] = biological target: T1, Notum (Homo sapiens, UniProt Q6P988, C330S); assay: SPR equilibrium binding to biotinylated Notum on streptavidin chip; set-up: The human Notum enzyme core comprising amino acids S81–T451 with a C330S mutation; made in house; dialyzed conditioned medium used without purification; conditions: for SPR Response: Fig 2b
T1 sequence (Q6P988 81-451 C330S): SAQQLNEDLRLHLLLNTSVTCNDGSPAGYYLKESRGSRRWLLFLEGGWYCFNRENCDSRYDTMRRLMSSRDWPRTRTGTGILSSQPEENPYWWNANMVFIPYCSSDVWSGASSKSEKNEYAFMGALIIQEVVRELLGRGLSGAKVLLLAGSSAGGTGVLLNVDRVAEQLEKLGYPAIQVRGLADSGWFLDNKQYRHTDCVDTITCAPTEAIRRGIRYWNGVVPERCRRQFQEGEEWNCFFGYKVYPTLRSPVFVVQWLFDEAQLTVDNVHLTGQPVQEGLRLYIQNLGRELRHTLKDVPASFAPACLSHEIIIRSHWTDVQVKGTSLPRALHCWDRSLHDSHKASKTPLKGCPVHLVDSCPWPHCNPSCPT
Experimental: The human Notum core sequence was cloned in a pHL-Avi3 vector[49] and co-transfected with the pDisplay_BirA-ER plasmid[50] into HEK293T cells with the media supplemented with 20 µM biotin. This procedure allows in vivo biotinylation to occur, and the dialyzed conditioned medium was directly used for SA sensor chip immobilization without protein purification. […] Approximately 2500 resonance units (RU) of the biotinylated Notum was coupled onto the chip. […] The response was plotted versus the concentration of the analytes and fitted by nonlinear regression to a one-site saturation binding model (GraphPad Prism 8).

[2] = biological target: T1, Notum; assay: Thermal shift assay (SYPRO Orange) of Notum; conditions: compound 500 µM; for Thermoflour melting curve fluorescence of Notum: Fig 2c
Experimental: Reference wells, i.e. solutions without compounds were used to compare the melting temperature (Tm). The experiments were performed in triplicate.

[3] = biological target: T1, Notum; assay: Notum activity assay with OPTS as substrate; assay type: biochemical; set-up: The human Notum enzyme core comprising amino acids S81–T451 with a C330S mutation; made in house; dialyzed conditioned medium used without purification; conditions: result in words
Experimental: OPTS is a common lipase substrate with an octanoyl lipid linked to a fluorescent moiety. It is not a natural Notum substrate; however, it can be used to quantify the enzymatic activity of purified Notum protein[23],[25],[28]. […] The fluorescent lipase substrate OPTS was dissolved in water at a concentration of 20 µM. […] The inhibition curves were fitted with a one-site model with GraphPad Prism 8 software.

Cn1c(=O)c2[nH]cnc2n(C)c1=O [theophylline, 1,3-dimethylxanthine]
SPR Response ([1]; theophylline conc. 8.138e-6 (unit not given)): 6 | SPR Response ([1]; theophylline conc. 1.628e-5 (unit not given)): 5.14 | SPR Response ([1]; theophylline conc. 3.255e-5 (unit not given)): 5.26 | SPR Response ([1]; theophylline conc. 6.51e-5 (unit not given)): 4.57 | SPR Response ([1]; theophylline conc. 0.0001302 (unit not given)): 4.5 | SPR Response ([1]; theophylline conc. 0.0002604 (unit not given)): 4.84 | SPR Response ([1]; theophylline conc. 0.0005208 (unit not given)): 5.18 | SPR Response ([1]; theophylline conc. 0.001042 (unit not given)): 6.64 | SPR Response ([1]; theophylline conc. 0.002083 (unit not given)): 9.15 | SPR Response ([1]; theophylline conc. 0.004167 (unit not given)): 13.17 | SPR Response ([1]; theophylline conc. 0.008333 (unit not given)): 19.59 | SPR Response ([1]; theophylline conc. 0.01667 (unit not given)): 29.6 | Binding to Notum (SPR response) ([1]; result in words): weak binding; also recorded: very weak binding | Thermoflour melting curve fluorescence of Notum ([2]; Temperature 24.5): 897.128 | Thermoflour melting curve fluorescence of Notum ([2]; Temperature 25.5): 765.384 | Thermoflour melting curve fluorescence of Notum ([2]; Temperature 26.5): 637.209 | Thermoflour melting curve fluorescence of Notum ([2]; Temperature 27.5): 518.408 | Thermoflour melting curve fluorescence of Notum ([2]; Temperature 28.5): 414.177 | Thermoflour melting curve fluorescence of Notum ([2]; Temperature 29.5): 331.765 | Thermoflour melting curve fluorescence of Notum ([2]; Temperature 30.5): 250.774 | Thermoflour melting curve fluorescence of Notum ([2]; Temperature 31.5): 158.442 | Thermoflour melting curve fluorescence of Notum ([2]; Temperature 32.5): 68.441 | Thermoflour melting curve fluorescence of Notum ([2]; Temperature 33.5): -19.5239 | Thermoflour melting curve fluorescence of Notum ([2]; Temperature 34.5): -111.255 | Thermoflour melting curve fluorescence of Notum ([2]; Temperature 35.5): -209.389 | Thermoflour melting curve fluorescence of Notum ([2]; Temperature 36.5): -312.731 | Thermoflour melting curve fluorescence of Notum ([2]; Temperature 37.5): -413.402 | Thermoflour melting curve fluorescence of Notum ([2]; Temperature 38.5): -500.183 | Thermoflour melting curve fluorescence of Notum ([2]; Temperature 39.5): -562.853 | Thermoflour melting curve fluorescence of Notum ([2]; Temperature 40.5): -610.744 | Thermoflour melting curve fluorescence of Notum ([2]; Temperature 41.5): -645.08 | Thermoflour melting curve fluorescence of Notum ([2]; Temperature 42.5): -650.416 | Thermoflour melting curve fluorescence of Notum ([2]; Temperature 43.5): -632.566 | Thermoflour melting curve fluorescence of Notum ([2]; Temperature 44.5): -596.655 | Thermoflour melting curve fluorescence of Notum ([2]; Temperature 45.5): -543.168 | Thermoflour melting curve fluorescence of Notum ([2]; Temperature 46.5): -459.896 | Thermoflour melting curve fluorescence of Notum ([2]; Temperature 47.5): -343.992 | Thermoflour melting curve fluorescence of Notum ([2]; Temperature 48.5): -208.285 | Thermoflour melting curve fluorescence of Notum ([2]; Temperature 49.5): -58.8655 | Thermoflour melting curve fluorescence of Notum ([2]; Temperature 50.5): 106.458 | Thermoflour melting curve fluorescence of Notum ([2]; Temperature 51.5): 280.009 | Thermoflour melting curve fluorescence of Notum ([2]; Temperature 52.5): 465.116 | Thermoflour melting curve fluorescence of Notum ([2]; Temperature 53.5): 688.929 | Thermoflour melting curve fluorescence of Notum ([2]; Temperature 54.5): 944.753 | Thermoflour melting curve fluorescence of Notum ([2]; Temperature 55.5): 1249.14 | Thermoflour melting curve fluorescence of Notum ([2]; Temperature 56.5): 1627.12 | Thermoflour melting curve fluorescence of Notum ([2]; Temperature 57.5): 2089.03 | Thermoflour melting curve fluorescence of Notum ([2]; Temperature 58.5): 2740.86 | Thermoflour melting curve fluorescence of Notum ([2]; Temperature 59.5): 3654.17 | Thermoflour melting curve fluorescence of Notum ([2]; Temperature 60.5): 4930.23 | Thermoflour melting curve fluorescence of Notum ([2]; Temperature 61.5): 6643.29 | Thermoflour melting curve fluorescence of Notum ([2]; Temperature 62.5): 8772.9 | Thermoflour melting curve fluorescence of Notum ([2]; Temperature 63.5): 11088.9 | Thermoflour melting curve fluorescence of Notum ([2]; Temperature 64.5): 13331.1 | Thermoflour melting curve fluorescence of Notum ([2]; Temperature 65.5): 15330 | Thermoflour melting curve fluorescence of Notum ([2]; Temperature 66.5): 16941.4 | Thermoflour melting curve fluorescence of Notum ([2]; Temperature 67.5): 18219.9 | Thermoflour melting curve fluorescence of Notum ([2]; Temperature 68.5): 19263.9 | Thermoflour melting curve fluorescence of Notum ([2]; Temperature 69.5): 20098.6 | Thermoflour melting curve fluorescence of Notum ([2]; Temperature 70.5): 20739.3 | Thermoflour melting curve fluorescence of Notum ([2]; Temperature 71.5): 21242.8 | Thermoflour melting curve fluorescence of Notum ([2]; Temperature 72.5): 21635.7 | Thermoflour melting curve fluorescence of Notum ([2]; Temperature 73.5): 21967.5 | Thermoflour melting curve fluorescence of Notum ([2]; Temperature 74.5): 22276.2 | Thermoflour melting curve fluorescence of Notum ([2]; Temperature 75.5): 22539.4 | Thermoflour melting curve fluorescence of Notum ([2]; Temperature 76.5): 22758.8 | Thermoflour melting curve fluorescence of Notum ([2]; Temperature 77.5): 22973.7 | Thermoflour melting curve fluorescence of Notum ([2]; Temperature 78.5): 23167.2 | Thermoflour melting curve fluorescence of Notum ([2]; Temperature 79.5): 23367.9 | Thermoflour melting curve fluorescence of Notum ([2]; Temperature 80.5): 23544.1 | Thermoflour melting curve fluorescence of Notum ([2]; Temperature 81.5): 23667.9 | Thermoflour melting curve fluorescence of Notum ([2]; Temperature 82.5): 23791 | Thermoflour melting curve fluorescence of Notum ([2]; Temperature 83.5): 23926.1 | Thermoflour melting curve fluorescence of Notum ([2]; Temperature 84.5): 24091.4 | Thermoflour melting curve fluorescence of Notum ([2]; Temperature 85.5): 24243.5 | Thermoflour melting curve fluorescence of Notum ([2]; Temperature 86.5): 24338.2 | Thermoflour melting curve fluorescence of Notum ([2]; Temperature 87.5): 24414.9 | Thermoflour melting curve fluorescence of Notum ([2]; Temperature 88.5): 24481.1 | Thermoflour melting curve fluorescence of Notum ([2]; Temperature 89.5): 24523 | Thermoflour melting curve fluorescence of Notum ([2]; Temperature 90.5): 24559.4 | Thermoflour melting curve fluorescence of Notum ([2]; Temperature 91.5): 24580.6 | Thermoflour melting curve fluorescence of Notum ([2]; Temperature 92.5): 24587.9 | Thermoflour melting curve fluorescence of Notum ([2]; Temperature 93.5): 24608.3 | Thermoflour melting curve fluorescence of Notum ([2]; Temperature 94.5): 24615 | Thermoflour melting curve fluorescence of Notum ([2]; Temperature 95.5): 24596.6 | Thermoflour melting curve fluorescence of Notum ([2]; Temperature 96.5): 24576.1 | Thermoflour melting curve fluorescence of Notum ([2]; Temperature 97.5): 24555 | Effect on Tm of Notum [2]: very weak binding to Notum | ∆Tm of Notum ([2]; versus Notum without compounds): about 1 °C | Melting temperature (Tm) of Notum ([2]; Notum without compounds Tm 63.6 °C): 64.5 °C | Notum inhibitory effect in OPTS enzyme assay [3]: not sufficient to inhibit Notum enzyme activity; also recorded: could not detect obvious Notum inhibitory effects
